Measurements taken from ChEMBL document CHEMBL1806458, “The design, synthesis and structure-activity relationships of novel isoindoline-based histone deacetylase inhibitors” (Bioorg Med Chem Lett, 2011).
Values after ≈ are worked out from the molar mass of the structure shown.

Columns and labels:
[1] = Thermodynamic solubility of the compound at pH 6.8; type: physicochemical; conditions: buffer; for solubility thermodynamic: read-out: Therm_solubility
[2] = Half life in rat liver microsomes; type: ADME, Microsome
[3] = Half life in human liver microsomes; type: ADME, Microsome
[4] = molecular target: Cytochrome P450 3A4 (Homo sapiens, UniProt P08684)
[5] = molecular target: T1, Voltage-gated inwardly rectifying potassium channel KCNH2 (Homo sapiens, UniProt Q12809); test: Inhibition of human ERG by automated patch clamp assay
[6] = molecular target: Histone deacetylase 1 (Homo sapiens, UniProt Q13547)
Description: Inhibition of purified recombinant HDAC1

[7] = system: HCT-116; test: cells; conditions: Homo sapiens
Description: Antiproliferative activity against human HCT116 cells

[8] = system: hERG (KCNH2); conditions: human
[9] = molecular target: T1, Voltage-gated inwardly rectifying potassium channel KCNH2; test: Binding affinity to human ERG by radioligand binding assay

Cytochrome P450 3A4, sequence (P08684 whole entry): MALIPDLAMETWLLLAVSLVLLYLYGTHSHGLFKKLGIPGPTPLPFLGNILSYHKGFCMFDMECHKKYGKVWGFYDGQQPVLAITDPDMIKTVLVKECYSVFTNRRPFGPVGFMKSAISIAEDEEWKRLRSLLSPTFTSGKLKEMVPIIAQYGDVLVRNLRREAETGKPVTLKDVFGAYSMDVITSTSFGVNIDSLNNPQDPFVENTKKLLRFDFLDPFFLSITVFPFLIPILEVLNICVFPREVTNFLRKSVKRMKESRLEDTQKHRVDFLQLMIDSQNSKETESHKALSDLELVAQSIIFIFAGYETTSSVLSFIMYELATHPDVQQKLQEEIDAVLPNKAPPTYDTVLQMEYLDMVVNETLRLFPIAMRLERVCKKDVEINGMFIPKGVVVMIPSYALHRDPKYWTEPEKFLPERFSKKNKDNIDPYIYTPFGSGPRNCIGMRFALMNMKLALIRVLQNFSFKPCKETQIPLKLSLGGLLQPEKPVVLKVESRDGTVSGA
Histone deacetylase 1, sequence (Q13547 whole entry): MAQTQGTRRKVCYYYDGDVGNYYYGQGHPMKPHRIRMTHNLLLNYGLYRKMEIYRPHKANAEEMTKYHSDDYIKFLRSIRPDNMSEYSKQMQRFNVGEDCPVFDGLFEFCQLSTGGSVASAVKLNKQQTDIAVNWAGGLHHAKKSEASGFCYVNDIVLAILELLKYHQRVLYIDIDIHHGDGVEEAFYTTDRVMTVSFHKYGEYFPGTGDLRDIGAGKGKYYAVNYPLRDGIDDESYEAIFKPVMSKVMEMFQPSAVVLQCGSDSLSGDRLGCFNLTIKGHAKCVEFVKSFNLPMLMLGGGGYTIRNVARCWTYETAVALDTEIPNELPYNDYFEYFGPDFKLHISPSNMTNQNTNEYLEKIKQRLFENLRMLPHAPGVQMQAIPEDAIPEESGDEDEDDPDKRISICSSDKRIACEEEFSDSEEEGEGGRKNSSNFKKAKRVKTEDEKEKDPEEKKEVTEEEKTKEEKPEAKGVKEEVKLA
T1 sequence (Q12809 whole entry): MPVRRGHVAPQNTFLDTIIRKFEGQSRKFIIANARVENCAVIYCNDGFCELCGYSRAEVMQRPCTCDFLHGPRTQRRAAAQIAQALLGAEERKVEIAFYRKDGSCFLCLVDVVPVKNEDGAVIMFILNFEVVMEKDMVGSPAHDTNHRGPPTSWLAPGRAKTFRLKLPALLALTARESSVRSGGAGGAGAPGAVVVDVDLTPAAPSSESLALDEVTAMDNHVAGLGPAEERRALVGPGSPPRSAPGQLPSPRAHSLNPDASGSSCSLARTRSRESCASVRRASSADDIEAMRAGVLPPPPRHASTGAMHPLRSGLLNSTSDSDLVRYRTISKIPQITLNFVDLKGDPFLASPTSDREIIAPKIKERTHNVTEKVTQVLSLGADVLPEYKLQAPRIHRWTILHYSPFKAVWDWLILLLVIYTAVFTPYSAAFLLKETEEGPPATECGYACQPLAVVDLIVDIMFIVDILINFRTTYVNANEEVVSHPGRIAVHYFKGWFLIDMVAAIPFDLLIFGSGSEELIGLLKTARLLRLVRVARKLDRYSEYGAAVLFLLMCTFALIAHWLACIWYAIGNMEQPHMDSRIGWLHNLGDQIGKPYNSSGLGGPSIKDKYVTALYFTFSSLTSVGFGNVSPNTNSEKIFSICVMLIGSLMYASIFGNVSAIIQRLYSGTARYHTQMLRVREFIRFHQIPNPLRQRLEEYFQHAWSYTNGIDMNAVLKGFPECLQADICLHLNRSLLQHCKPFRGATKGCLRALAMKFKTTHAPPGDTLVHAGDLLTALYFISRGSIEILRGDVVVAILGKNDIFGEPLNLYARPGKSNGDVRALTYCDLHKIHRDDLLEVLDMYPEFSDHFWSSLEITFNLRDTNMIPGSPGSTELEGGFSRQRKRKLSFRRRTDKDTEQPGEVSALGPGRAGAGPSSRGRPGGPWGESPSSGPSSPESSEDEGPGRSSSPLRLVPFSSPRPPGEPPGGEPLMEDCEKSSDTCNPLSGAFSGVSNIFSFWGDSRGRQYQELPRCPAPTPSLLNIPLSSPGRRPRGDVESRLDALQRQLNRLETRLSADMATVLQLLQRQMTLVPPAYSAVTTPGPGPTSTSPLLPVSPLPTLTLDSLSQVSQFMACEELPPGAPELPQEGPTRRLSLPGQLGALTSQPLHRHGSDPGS

Row | Compound | solubility thermodynamic [1] | half-life [2] | half-life [3] | IC50 [4] | IC50 [5] | IC50 [6] | Therm_solubility [1] | IC50 [7] | selectivity ratio ([8]; hct-116) | IC50 [9] | selectivity ratio ([8]; hERG assay and HCT116 cells)
1 | Nc1ccccc1NC(=O)c1ccc(CNC(=O)OCc2cccnc2)cc1 [ENTINOSTAT] | 401 µM (≈ 151 µg/mL) | 405 min | 405 min | 730 nM | – | – | – | – | – | – | –
2 | O=C(/C=C/c1ccc2c(c1)CN(C(=O)C1CCCC1)C2)NO | – | – | – | – | > 30000 nM | 350 nM | – | – | – | – | –
3 | CS(=O)(=O)N1Cc2ccc(/C=C/C(=O)NO)cc2C1 | – | – | – | – | > 30000 nM | 630 nM | soluble | – | – | – | –
4 | O=C(/C=C/c1ccc2c(c1)CN(S(=O)(=O)c1cccs1)C2)NO | 34 µM (≈ 11.9 µg/mL) | – | – | > 50000 nM | – | 89 nM | – | 800 nM | – | – | –
5 | O=C(/C=C/c1ccc(CN(CCO)CCc2c[nH]c3ccccc23)cc1)NO [DACINOSTAT] | 97 µM (≈ 36.8 µg/mL) | 2.3 min | 12 min | – | – | – | – | – | – | – | –
6 | Cc1[nH]c2ccccc2c1CCN1Cc2ccc(/C=C/C(=O)NO)cc2C1 | 263 µM (≈ 95.1 µg/mL) | 2 min | 30 min | > 10000 nM | 4800 nM | 26 nM | – | 42 nM | 114 | – | –
7 | Cc1[nH]c2ccccc2c1CC(=O)N1Cc2ccc(/C=C/C(=O)NO)cc2C1 | < 20 µM | 15 min | 173 min | – | > 30000 nM | 20 nM | – | 190 nM | – | > 30000 nM | > 158
8 | O=C(CCCCCCC(=O)Nc1ccccc1)NO [VORINOSTAT] | – | 114 min | 405 min | – | – | – | 19 µM | – | – | – | –
9 | COc1cccc(S(=O)(=O)N2Cc3ccc(/C=C/C(=O)NO)cc3C2)c1 | – | – | – | – | > 30000 nM | 92 nM | soluble | 1130 nM | – | – | –
10 | O=C(/C=C/c1ccc2c(c1)CN(CCc1cnn3ccccc13)C2)NO | 765 µM (≈ 267 µg/mL) | 9 min | 112 min | > 50000 nM | 5200 nM | 78 nM | – | 530 nM | 7.4 | – | –
11 | O=C(/C=C/c1cccc(S(=O)(=O)Nc2ccccc2)c1)NO [BELINOSTAT] | 734 µM (≈ 234 µg/mL) | 18 min | 405 min | – | – | – | – | – | – | – | –
12 | COc1ccc(S(=O)(=O)N2Cc3ccc(/C=C/C(=O)NO)cc3C2)cc1 | < 5 µM | 8.5 min | 19 min | > 50000 nM | > 30000 nM | 35 nM | – | 930 nM | – | – | –
13 | O=C(/C=C/c1ccc2c(c1)CN(S(=O)(=O)C1CC1)C2)NO | – | – | – | – | > 30000 nM | 790 nM | soluble | – | – | – | –
14 | CCCCS(=O)(=O)N1Cc2ccc(/C=C/C(=O)NO)cc2C1 | – | – | – | – | – | 150 nM | soluble | 3210 nM | – | – | –
15 | O=C(/C=C/c1ccc2c(c1)CN(S(=O)(=O)c1ccccc1)C2)NO | – | – | – | – | > 30000 nM | 190 nM | soluble | 3420 nM | – | – | –
16 | O=C(/C=C/c1ccc2c(c1)CN(CCc1c[nH]c3ccccc13)C2)NO | 490 µM (≈ 170 µg/mL) | 5 min | – | > 10000 nM | – | 16 nM | – | 220 nM | – | – | –
17 | Cc1ccc(S(=O)(=O)N2Cc3ccc(/C=C/C(=O)NO)cc3C2)cc1 | 20 µM (≈ 7.17 µg/mL) | 4.1 min | 11 min | – | > 30000 nM | 47 nM | – | 1580 nM | – | – | –
18 | CC(C)(C)OC(=O)N1Cc2ccc(/C=C/C(=O)NO)cc2C1 | 99 µM (≈ 30.1 µg/mL) | 14 min | 131 min | – | > 30000 nM | 520 nM | – | – | – | – | –

Row | Compound | solubility thermodynamic [1] | half-life [2] | half-life [3] | IC50 [4] | IC50 [5] | IC50 [6] | Therm_solubility [1] | IC50 [7] | selectivity ratio ([8]; hct-116) | IC50 [9] | selectivity ratio ([8]; hERG assay and HCT116 cells)
19 | O=C(/C=C/c1ccc2c(c1)CN(C(=O)C1CC1)C2)NO | – | – | – | – | > 30000 nM | 420 nM | – | – | – | – | –
20 | O=C(/C=C/c1ccc2c(c1)CN(C(=O)Cc1ccccc1)C2)NO | – | – | – | > 50000 nM | – | 130 nM | soluble | 830 nM | – | – | –
21 | Cn1cnc(S(=O)(=O)N2Cc3ccc(/C=C/C(=O)NO)cc3C2)c1 | – | – | – | – | > 30000 nM | 140 nM | soluble | 8840 nM | – | – | –
22 | O=C(/C=C/c1ccc2c(c1)CN(S(=O)(=O)c1cccnc1)C2)NO | – | – | – | – | > 30000 nM | 150 nM | soluble | 4260 nM | – | – | –
23 | O=C(/C=C/c1ccc2c(c1)CN(Cc1ccccc1)C2)NO | – | 29 min | 50 min | – | 27500 nM | 200 nM | – | 1040 nM | – | – | –
24 | O=C(/C=C/c1ccc2c(c1)CN(C(=O)c1cccc(C(F)(F)F)c1)C2)NO | – | – | – | – | – | 200 nM | – | 5820 nM | – | – | –
25 | Cc1ccccc1S(=O)(=O)N1Cc2ccc(/C=C/C(=O)NO)cc2C1 | – | – | – | – | – | 130 nM | soluble | 2230 nM | – | – | –
26 | O=C(/C=C/c1ccc2c(c1)CN(CCC1CCCCC1)C2)NO | – | – | – | – | – | 100 nM | – | 900 nM | – | – | –
27 | CC(C)(C)C(=O)N1Cc2ccc(/C=C/C(=O)NO)cc2C1 | – | – | – | – | > 30000 nM | 420 nM | – | – | – | – | –
28 | O=C(/C=C/c1ccc2c(c1)CN(C(=O)C1CCCCC1)C2)NO | – | – | – | – | – | 390 nM | – | – | – | – | –
29 | Nc1ccccc1NC(=O)c1ccc(CNc2nccc(-c3cccnc3)n2)cc1 [MOCETINOSTAT] | 33 µM (≈ 13.1 µg/mL) | 31.3 min | 37.8 min | – | – | – | – | – | – | – | –
30 | O=C(/C=C/c1ccc2c(c1)CN(C(=O)c1cccnc1)C2)NO | – | – | – | – | > 30000 nM | 380 nM | soluble | – | – | – | –
31 | O=C(/C=C/c1ccc2c(c1)CN(S(=O)(=O)Cc1ccccc1)C2)NO | – | – | – | – | > 30000 nM | 120 nM | soluble | 1120 nM | – | – | –
32 | Cc1cccc(S(=O)(=O)N2Cc3ccc(/C=C/C(=O)NO)cc3C2)c1 | 20 µM (≈ 7.17 µg/mL) | 7 min | 15 min | – | > 30000 nM | 62 nM | – | 1420 nM | – | – | –
33 | O=C(/C=C/c1ccc2c(c1)CN(S(=O)(=O)c1ccc(C(F)(F)F)cc1)C2)NO | – | – | – | – | – | 160 nM | soluble | 2430 nM | – | – | –
34 | O=C(/C=C/c1ccc2c(c1)CN(S(=O)(=O)c1ccncc1)C2)NO | – | – | – | – | > 30000 nM | 480 nM | soluble | – | – | – | –
35 | Cc1noc(-c2ccccc2)c1CCN1Cc2ccc(/C=C/C(=O)NO)cc2C1 | 490 µM (≈ 191 µg/mL) | 6 min | 17 min | – | – | 170 nM | – | 2200 nM | – | – | –
36 | O=C(/C=C/c1ccc2c(c1)CN(S(=O)(=O)c1cccc(C(F)(F)F)c1)C2)NO | – | – | – | – | > 30000 nM | 160 nM | soluble | 2050 nM | – | – | –
